Key:
VHL = biological target: T1, VHL (Homo sapiens, UniProt P40337); assay: Cellular VHL engagement assay (BRD4BD2-GFP with mCherry reporter cells); type: cell-based; settings: cells stably expressing BRD4BD2-GFP with mCherry reporter, co-treated with 250 nM BRD4 degrader, 5 h
T1 construct: Cells stably expressing the BRD4BD2-GFP with mCherry reporter were seeded; endogenous in cells; host or cells: unnamed cells stably expressing the BRD4BD2-GFP with mCherry reporter
Experimental: Cells stably expressing the BRD4BD2-GFP with mCherry reporter were seeded at a density of 1000-4000 cells/well in 384-well plates with 50 μL per well of FluoroBrite™ DMEM media (Thermo Fisher Scientific™, A18967) supplemented with 2% FBS a day before compound treatment. Compounds 1 and 2, and 250 nM 1 ((2S,4R)-1-(2R)-2-acetamido-3-[[6-[2-[(6S)-4-(4-chlorophenyl)-2,3,9-trimethyl-6H-thieno[3,2-f][1,2,4]triazolo[4,3-a][1,4]diazepin-6-yl]acetamido]hexyl]thio]-3-methylbutanoyl]-4-hydroxy-N-[4-(4-methylthiazol-5-yl)benzyl) pyrrolidinine-2-carboxamide) were dispensed using a D300e Digital Dispenser (HP), normalized to 0.5% DMSO, and incubated with the cells for 5 h. The assay plate was imaged immediately using an Acumen® High Content Imager (TTP Labtech) with 488 nm and 561 nm lasers in a 2 μm×1 μm grid per well format. The resulting images were analyzed using CellProfiler™.
A series of image analysis steps (an ‘image analysis pipeline’) was constructed. […] A background illumination function was calculated for both red and green channels of each well individually and subtracted to correct for illumination variations across the 384-well plate from various sources of error. […] The fraction of GFP-positive cells/mCherry-positive cells in each well was then calculated, and the green and red images were rescaled for visualization. […]

HDAC3 = biological target: T2, HDAC3 (Homo sapiens, UniProt O15379); assay: Quantitative LC-MS proteomics of relative protein abundance in treated Kelly cells; type: cell-based; settings: 1 μM compound, 5 hr, compared to DMSO control
T2 construct: endogenous in cells; host or cells: Kelly cells
Experimental: Kelly cells were treated with DMSO or 1 μM of compound 2 or 3 for 5 hr and cells were harvested by centrifugation at 4° C. before snap freezing in liquid nitrogen. Cell lysis was performed by the addition of Urea buffer (8 M Urea, 50 mM NaCl, 50 mM 4-(2-hydroxyethyl)-1-piperazineethanesulfonic acid (EPPS) pH 8.5, Protease and Phosphatase inhibitors) followed by manual homogenization by 20 passes through a 21-gauge (1.25 in. long) needle. Lysate was clarified by centrifugation and protein quantified using bradford (Bio-Rad) assay. 50 μg of protein for each sample was reduced, alkylated and precipitated using methanol/chloroform as described in Donovan et al., eLife 7: e38430 (2018). The resulting precipitated protein was resuspended in 4 M Urea, 50 mM HEPES pH 7.4, buffer for solubilization, followed by dilution to 1 M urea with the addition of 200 mM EPPS, pH 8. Proteins were digested for 12 hours at room temperature with LysC (1:50 ratio), followed by dilution to 0.5 M urea and a second digestion step was performed by addition of trypsin (1:50 ratio) for 6 hours at 37° C. […]
The diaPASEF raw file processing and controlling peptide and protein level false discovery rates, assembling proteins from peptides, and protein quantification from peptides was performed using library free analysis in DIA-NN 1.8 (Demichev et al., Nature Methods 17:41-44 (2020)). […]

T2 sequence (O15379 whole entry): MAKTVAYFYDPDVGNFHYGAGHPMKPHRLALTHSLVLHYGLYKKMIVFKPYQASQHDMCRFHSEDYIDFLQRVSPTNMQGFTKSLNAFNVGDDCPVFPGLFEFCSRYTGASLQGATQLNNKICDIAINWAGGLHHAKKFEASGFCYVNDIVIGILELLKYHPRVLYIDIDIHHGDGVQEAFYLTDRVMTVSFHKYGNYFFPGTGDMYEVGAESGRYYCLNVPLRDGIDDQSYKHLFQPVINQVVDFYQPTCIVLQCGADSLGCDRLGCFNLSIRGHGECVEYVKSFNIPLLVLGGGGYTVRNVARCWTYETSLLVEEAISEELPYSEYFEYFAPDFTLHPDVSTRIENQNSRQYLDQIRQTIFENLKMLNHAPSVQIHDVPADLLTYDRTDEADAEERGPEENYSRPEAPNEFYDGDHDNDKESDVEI
T2 sequence (Q9Y618 389-480 partner limits assumed): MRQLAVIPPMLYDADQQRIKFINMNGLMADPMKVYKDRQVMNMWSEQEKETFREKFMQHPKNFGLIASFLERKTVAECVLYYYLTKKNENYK
T1 sequence (P40337 whole entry, species assumed): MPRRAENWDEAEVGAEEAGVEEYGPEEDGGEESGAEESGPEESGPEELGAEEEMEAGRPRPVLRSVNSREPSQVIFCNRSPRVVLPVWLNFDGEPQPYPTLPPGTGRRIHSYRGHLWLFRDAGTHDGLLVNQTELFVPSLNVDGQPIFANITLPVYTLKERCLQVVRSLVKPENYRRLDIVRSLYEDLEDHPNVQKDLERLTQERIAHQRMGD

| IC50 (VHL) | SMILES | relative change in HDAC3 protein abundance (degradation and selectivity) (HDAC3) |
| --- | --- | --- |
| 16.8 µM | CCCNNC(=O)/C=C/c1ccc(CN(CCOCCC(=O)N[C@H](C(=O)N2C[C@H](O)C[C@H]2C(=O)N[C@@H](C)c2ccc(-c3scnc3C)cc2)C(C)(C)C)CCc2c[nH]c3ccccc23)cc1 [Compound 1, (2S,4R)-1-((S)-2-(3-(2-((2-(1H-indol-3-yl)ethyl) (4-((E)-3-oxo-3-(2-propylhydrazineyl)prop-1-en-1-yl)benzyl)amino)ethoxy)propanamido)-3,3-dimethylbutanoyl)-4-hydroxy-N—((S)-1-(4-(4-methylthiazol-5-yl)phenyl)ethyl) pyrrolidine-2-carboxamide] | – |
| 6.78 µM | CCCNNC(=O)/C=C/c1ccc(CN(CCOCCOCCC(=O)N[C@H](C(=O)N2C[C@H](O)C[C@H]2C(=O)N[C@@H](C)c2ccc(-c3scnc3C)cc2)C(C)(C)C)CCc2c[nH]c3ccccc23)cc1 [Compound 2, (2S,4R)-1-((S)-14-(tert-butyl)-1-(1H-indol-3-yl)-12-oxo-3-(4-((E)-3-oxo-3-(2-propylhydrazineyl)prop-1-en-1-yl)benzyl)-6,9-dioxa-3,13-diazapentadecan-15-oyl)-4-hydroxy-N—((S)-1-(4-(4-methylthiazol-5-yl)phenyl)ethyl) pyrrolidine-2-carboxamide] | significant and selective reduction in HDAC3 protein levels |
| – | CCCNNC(=O)/C=C/c1ccc(CN(CCCCCOc2cc(-c3scnc3C)ccc2CNC(=O)[C@@H]2C[C@@H](O)CN2C(=O)[C@@H](NC(=O)C2(F)CC2)C(C)(C)C)CCc2c[nH]c3ccccc23)cc1 [Compound 3, (2S,4R)—N-(2-((5-((2-(1H-indol-3-yl)ethyl) (4-((E)-3-oxo-3-(2-propylhydrazineyl)prop-1-en-1-yl)benzyl)amino)pentyl)oxy)-4-(4-methylthiazol-5-yl)benzyl)-1-((S)-2-(1-fluorocyclopropane-1-carboxamido)-3,3-dimethylbutanoyl)-4-hydroxypyrrolidine-2-carboxamide] | significant and selective reduction in HDAC3 protein levels |

From patent US20260256920A1, “SELECTIVE HISTONE DEACETYLASE 3 (HDAC3) DERADERS AND METHODS OF USE THEREOF” (Dana-Farber Cancer Institute, Inc., priority 2022, published 2026)
